Assay results as given in patent publication US20120157519A1 (priority 2009, published 2012).

Assays:
[1] = system: human immunodeficiency virus type 1 (HIV-1); conditions: Vonsover et al., AIDS Res Hum Retroviruses 1992; cited from earlier work
[2] = system: H1N1 influenza virus; set-up: species or system BALB/c mice; conditions: mouse, in vivo
[3] = system: H5N1 virus; type: cell-based
[4] = system: YTS cells; type: cell-based
[5] = system: H1N1 (swine) influenza virus; type: cell-based, swine influenza H1N1v virus
[6] = system: mouse cytomegalovirus (MCMV); conditions: Sredni et al., Immunol Lett 1994; cited from earlier work
[7] = system: primary NK cells; type: cell-based; conditions: 24 hours incubation, 0.1-5 μg/ml, supernatant ELISA
[8] = system: H5N1 influenza virus; set-up: species or system BALB/c mice; conditions: mouse, in vivo
[9] = system: 721.221 target cells; type: cell-based; conditions: effector cells pre-incubated 24 hours with AS101; high concentrations less effective than moderate
[10] = system: phosphorylated Akt (PI3k-Akt signaling); type: cell-based, canine
[11] = system: INFγ; type: in vivo, mice; conditions: treated 24 hours before infection, six days after infection
[12] = system: MDCK cells

## Cl[TeH]1(Cl)(Cl)OCCO1 [AS101, ammonium trichloro(dioxyethylene-O,O′)tellurate]
[1]
  effect against human immunodeficiency virus type 1 (HIV-1): inhibitory effect
[2]
  H1N1 virus in infected mice (lung titer, real-time RT-PCR): significant inhibition
  H1N1 virus titers in the lungs, each tested administration time: significantly reduced
[3]
  protection of cells from viral infection by supernatant of treated cells: can protect cells from viral infection
[4]
  AS101 concentration at which the effect on IFN-γ secretion decreased: above 1 μg/ml
  IFN-γ secretion by YTS cells: increased secretion
[5]
  H1N1 virus infection, administered concomitantly with the virus: strongest inhibition
  H1N1 virus infection, each tested administration time: inhibition
  replication of H1N1 influenza virus (viral titer by ELISA): significant inhibition
[6]
  effect against mouse cytomegalovirus (MCMV): inhibitory effect
[7]
  IFN-γ secretion by primary NK cells: increased secretion
[8]
  H5N1 virus in infected mice (lung titer, real-time RT-PCR): significant inhibition
  H5N1 virus titers in the lungs, each tested administration time: significantly reduced
[8]; ip
  body weight loss after infection: weight loss was reduced somewhat
[9]
  NK killing of target cells: increased NK killing
[10]
  level of phosphorylated Akt, AS101 treatment alone: increased
[10]; MDCK cells, 2 μg/ml, 10^2×TCID50 H5N1, 24 hours
  level of phosphorylated Akt, cells infected with H5N1 virus: dramatically reduced levels
[11]
  interferon secretion in lungs of H5N1 infected mice: restored interferon secretion to the levels observed in uninfected mice
[12]
  toxicity to the cells (MTT): not toxic

## CCOC(=O)C1=C[C@@H](OC(CC)CC)[C@H](NC(C)=O)[C@@H](N)C1 [oseltamivir, reference compound]
[2]
  H1N1 virus in infected mice (lung titer, real-time RT-PCR): Inhibition
